Source: US7276233B2, “Methods of treating neoplasia with combinations of target cell-specific adenovirus and chemotherapy” (priority 2001, dated 2007)
Like-named read-outs stand apart in the source and are kept apart here.

Assays:
[1] = test system: LNCaP (prostate carcinoma) cells; experiment: cells; type: cell-based, human; conditions: for cell survival: LNCaP, CV787 MOI 0.01
Protocol: In preliminary experiments, we examined the chemosensitivity to different agents, as well as the oncolytic effect of CV787 in the prostate carcinoma LNCaP cells. Cells were plated in 96-well plates at a density of 20,000 cells per well. […] […] Cells were incubated at 37° C. in 5% CO2 for an additional two days. Cell viability was measured using the MTT assay. Mosmann et al., (1983). Briefly, 50 μl of 1 mg/ml MTT vital dye (Sigma, St. Louis, Mo.) was added to each well and allowed to incubate for 3 h at 37° C. and 5% CO2. Then, plates were drained to remove untransformed MTT and blot. 100 μl of isopropanol was added to each well, the plate was incubated for 15 minutes and vigorously shaken (Microshaker II, Dynatech) in order to ensure solubilization of the blue formazan. The optical density of each well was quantitated using an automatic plate reader (Molecular Devices, Sunnyvale, Calif.) with a 560 nm test wavelength and 690 nm reference wavelength. Cell viability was defined as the ratio of the mean absorbance of 9 treatment wells minus the blank to the mean absorbance of 6 untreated matched controls minus the blank. […] Each experiment was performed at least twice.
To study potential synergy or enhancement in treatment when administering CV787 and chemotherapy in vitro, the effectiveness of the combined treatment at several concentrations of paclitaxel, ranging from 0-62.5 nM, […], with CV787 at various MOIs, ranging from 0-10 MOI, was evaluated in the prostate carcinoma LNCaP cells. Cells were treated with CV787 and paclitaxel or docetaxel and the cell viability was determined at various time points after treatment by an MTT assay, as shown in FIGS. 2-4. […] To determine whether the timing of administration for the testing articles affected the combined oncolytic effect, LNCaP cells were treated with paclitaxel for 24 hours before or after infection with CV787.
The protocols described above were used to screen a number of different chemotherapeutic agents from various classes of chemotherapeutics. […]

[2] = test system: caspase-7, poly-ADP-ribose-polymerase, Fas/Fas-L, Bcl-2, Bcl-XL, Bax; experiment: Immunoblot of apoptosis related protein markers in treated LNCaP cells; type: cell-based, human; conditions: docetaxel 6.0 nM, CV787 MOI 0.5
Text: Enhanced chemiluminescence (ECL; Amersham Pharmacia) was used for detection. […] All antibodies were used according manufacturer's instruction.

[3] = test system: LNCaP prostate tumor xenografts; type: in vivo, athymic Balb/c nu/nu mice
Text: Six to eight week old athymic Balb/c nu/nu mice were obtained from Simonson Laboratories (Gilroy, Calif.) and acclimatized to laboratory conditions one week prior to tumor implantation. Xenografts were established by injecting 1×10^6 LNCaP cells, suspended in 100 μd of RPMI 1640 and 100 μd of matrigel, subcutaneously near the small of the back. When tumors reached between 400 mm^3 and 600 mm^3, mice were randomized into groups of four. The first group received 1×10^10 particles of CV787 at day 1 via the tail vein intravenously (i.v.). CV787 was diluted in 0.1 ml lyophilized buffer (5% sucrose, 1% glycine, 1 mM MgCl2, 0.05% Tween-80 in 10 mM Tris buffer) and injected into the tail vein using a 28-gauge needle. The second group was given taxane only. Paclitaxel was intraperitoneally administered at a dose of 20 mg/kg, daily for 4 days starting at day 2. Docetaxel was intravenously administered at a dose of 5 or 12.5 mg/kg at day 2, 5 and 8. The third group was given CV787 (i.v.) at day 1 and taxane at the same doses and schedule as the second group. As a control, a fourth group was treated with 0.1 ml of normal saline (i.e. control) i.v. at day 1 and then i.p. or i.v. for 4 days. The dose and route of administration of paclitaxel were selected according to studies in nude mice (Riondel, J. et al., 1986, Cancer Chemother Pharmacol. 17:137-42.) (Chahinian, A. P. et al., 1998, J. Surg. Onc. 67:104-111.). For docetaxel, the dose was selected based on the human clinical dose. (RPR Pharm. Inc., Collegeville, Pa.) and determined by a dose-range finding study in nude mice. Tumors were measured weekly in two dimensions by external caliper and volume was estimated by the formula [length (mm)×width (mm)^2]/2 (7). Animals were humanely killed when their tumor burden became excessive. Serum was harvested weekly by retro-orbital bleed. The difference in mean tumor volume between treatment groups was compared for statistical significance using the unpaired, two-tailed, t-test. Blood samples were collected at various time points for determining prostate-specific antigen. Federal and institutional guidelines for animal care were followed.
Six to eight week old athymic Balb/c nu/nu mice were obtained from Simonson Laboratories (Gilroy, Calif.) and acclimatized to laboratory conditions one week prior to tumor implantation. Xenografts were established by injecting 1×10^6 LNCaP cells subcutaneously near the small of the back suspended in 100 μl of RPMI 1640 and 100 μl of maltrigel (Collaborative Biochemical Products). When tumors reached between 400 mm^3 and 600 mm^3, mice were randomized in groups of four each to receive either 1×10^10 particles of CV787 at day 1 via the tail vein or paclitaxel, 20 mg/kg intraperitoneally (i.p.) daily for 4 days starting at day 2, versus controls treated with normal saline 0.1 ml i.v. at day 1 and then i.p. for 4 days. In addition, another group of mice received the combination of CV787 and paclitaxel at the same doses and schedule as above. CV787 was diluted in lyophilized buffer and injected into tail vein in a volume of 0.1 ml using a 28-gauge needle. The dose and route of administration of paclitaxel were selected according to studies in nude mice by Riondel et al., (1986) Cancer Chemother Pharmacol. 17:137. These authors conducted acute toxicity studies of paclitaxel in nude mice and selected the unit dose of 12.5 mg/kg daily, being 1/20th of the LD50 dose (lethal dose for 50% of animals). Tumors were measured weekly in two dimensions by external caliper and volume was estimated by the formula [length (mm)×width (mm)^2]/2. Animals were humanely killed when their tumor burden became excessive. Serum was harvested weekly by retro-orbital bleed. The difference in mean tumor volume between treatment groups was compared for statistical significance using the unpaired, two-tailed, t-test. Blood samples were collected at various time points for determining prostate-specific antigen (PSA). […]

[4] = type: in vivo, Balb/C mice; conditions: docetaxel alone
Text: Finally, and of clinical significance are two other results. […] Indeed, animals treated with both CV787 and taxotere gain 24% more weight than untreated control animals (Table 2).

[5] = test system: LNCaP prostate tumor xenografts; type: in vivo, athymic Balb/c nu/nu mice; conditions: for change in tumor growth (FIG. 24): alone or with CV787 1×10^10 particles, 5 week period
[6] = test system: LNCaP prostate tumor xenografts; experiment: LNCaP xenograft antitumor efficacy, intratumorally administered CV787 with paclitaxel; type: in vivo, athymic Balb/c nu/nu mice; conditions: 6 weeks after treatment
Protocol: Six to eight week old athymic Balb/c nu/nu mice were obtained from Simonson Laboratories (Gilroy, Calif.) and acclimatized to laboratory conditions one week prior to tumor implantation. Xenografts were established by injecting 1×10^6 LNCaP cells subcutaneously near the small of the back suspended in 100 μl of RPMI 1640 and 100 μl of maltrigel (Collaborative Biochemical Products). When tumors reached between 400 mm^3 and 600 mm^3, mice were randomized in groups of four each to receive either 1×10^10 particles of CV787 at day 1 via the tail vein or paclitaxel, 20 mg/kg intraperitoneally (i.p.) daily for 4 days starting at day 2, versus controls treated with normal saline 0.1 ml i.v. at day 1 and then i.p. for 4 days. […] Tumors were measured weekly in two dimensions by external caliper and volume was estimated by the formula [length (mm)×width (mm)^2]/2. […]
The in vivo antitumor efficacy of intratumorally administered CV787 and the interaction of CV787 in the combination with paclitaxel was assessed in the LNCaP mouse xenograft model as described above. […]
All treatment groups received identical injections of the active agent or vehicle control into both the tumor and peritoneum. Tumor volume was measured just before the injection of test articles and once a week for 6 weeks thereafter.

[7] = CV787 1×10^10 particles i.v. single dose, paclitaxel 20 mg/kg 4 doses

Row | Compound | IC50 ([1]; Homo sapiens, 120 h, LNCaP cells, day 5, dose-response curve analysis) [nM] | cell survival ([1]; day 7 post treatment, % of the control, docetaxel 3.12 nM 24 hour before virus) [%] | change of Bcl-2 expression [2] | effect of single agent on tumor growth ([3]; CV787 1×10^10 particles i.v., docetaxel 5.0 mg/kg i.v.) | minimum tumor volume, % of the original tumor volume ([3]; docetaxel 5 mg/kg alone, reached by week 1) | course of tumor volume (FIG. 29) ([3]; docetaxel 5 mg/kg, CV787 1×10^10 particles (CV787 alone also 1×10^11 particles), 6 weeks) | body weight [4] | relative tumor volume, % of baseline ([5]; four weeks after treatment, CV787 1×10^10 particles i.v. day 1, docetaxel 10 mg/kg i.v.) | cell survival ([1]; 6 days after virus infection, paclitaxel 6.25 nM) [%] | time after treatment at which the regression was produced [3, 7] [weeks] | tumor regression produced [3, 7] | tumor growth inhibition compared with the control group ([3]; day 21, CV787 1×10^10 particles, paclitaxel 20 mg/kg) [%] | relative tumor volume, % of baseline ([3]; four weeks after treatment, CV787 1×10^10 particles i.v. day 1, paclitaxel 20 mg/kg i.p. daily for 4 days) | relative tumor volume, % of baseline ([3]; ten weeks after treatment, CV787 1×10^10 particles i.v., paclitaxel 20 mg/kg) | average tumor volume ([6]; CV787 1×10^7 particles/mm^3 intratumoral day 1, paclitaxel 15 mg/kg daily for four days) [mm^3] | average tumor volume, % of baseline ([6]; CV787 1×10^7 particles/mm^3 intratumoral, paclitaxel 15 mg/kg) | change in tumor growth (FIG. 24) ([5]; paclitaxel 2 mg/kg) | change in tumor growth (FIG. 24) ([5]; paclitaxel 10 mg/kg)
1 | CC(=O)O[C@@]12CO[C@@H]1C[C@H](O)[C@@]1(C)C(=O)[C@H](O)C3=C(C)[C@@H](OC(=O)[C@H](O)[C@@H](NC(=O)OC(C)(C)C)c4ccccc4)C[C@@](O)([C@@H](OC(=O)c4ccccc4)[C@H]21)C3(C)C [docetaxel] | 8.14 | 95 | did not observe a significant change | stabilization of tumor growth | approximately 50% | by week 6 has reached the starting tumor volume | transient weight loss | 49 % of baseline | – | – | – | – | – | – | – | – | – | –
2 | CC(=O)O[C@H]1C(=O)[C@@]2(C)[C@H]([C@H](OC(=O)c3ccccc3)[C@]3(O)C[C@H](OC(=O)[C@H](O)[C@@H](NC(=O)c4ccccc4)c4ccccc4)C(C)=C1C3(C)C)[C@]1(OC(C)=O)CO[C@@H]1C[C@@H]2O [paclitaxel] | – | – | – | – | – | – | – | – | 100 | 2 | partial tumor regression | 70 | 31 % of baseline | 149 % of baseline | 630 | 166 % of baseline | progressive enlargement of the tumor | merely arrests tumor growth
